From patent US10538535B2, “Antitumoral compounds” (priority 2017, dated 2020)
Read-outs that look alike come from different tables or passages of the source.

Tests used:
Experiment in all cases: cells
Conditions in all cases: for CC50: read-out: LC50; for IC (TGI): read-out: TGI
PSN1 cells = test system: PSN1 cells
Text: (§1) The aim of this assay is to evaluate the in vitro cytostatic (ability to delay or arrest tumor cell growth) or cytotoxic (ability to kill tumor cells) activity of the samples being tested.
(§2) A colorimetric assay, using sulforhodamine B (SRB) reaction has been adapted to provide a quantitative measurement of cell growth and viability (following the technique described by Skehan et al. J. Natl. Cancer Inst. 1990, 82, 1107-1112). Another colorimetric assay based on 3-(4,5-Dimethylthiazol-2-yl)-2,5-diphenyltetrazolium bromide (MTT) reduction to a purple formazan has been also used to assess the antiproliferative activity (following the technique described by Mosmann et al. J. Immunol. Meth. 1983, 65, 55-63).
(§3) These forms of assays employ 96-well cell culture microplates following the standards of the American National Standards Institute and the Society for Laboratory Automation and Screening (ANSI SLAS 1-2004 (R2012) Oct. 12, 2011. All the cell lines used in this study were obtained from the American Type Culture Collection (ATCC) and derive from different types of human cancer.
(§4) A549, HT29, MDA-MB-231 and PSN1 cells were maintained in Dulbecco's Modified Eagle Medium (DMEM) while PC-3 and 22Rv1 cells were maintained in Roswell Park Memorial Institute Medium (RPMI). All cell lines were supplemented with 10% Fetal Bovine Serum (FBS), 2 mM L-glutamine, 100 U/mL penicillin, and 100 […] at 37° C., 5% CO2 and 98% humidity. For the experiments, cells were harvested from subconfluent cultures using trypsinization and resuspended in fresh medium before counting and plating.
(§5) A549, HT29, MDA-MB-231 and PSN1 cells were seeded in 96 well microtiter plates, at 5000 cells per well in aliquots of 150 μL, and allowed to attach to the plate surface for 18 hours (overnight) in drug free medium. After that, one control (untreated) plate of each cell line was fixed (as described below) and used for time zero reference value. Culture plates were then treated with test compounds (50 μL aliquots of 4× stock solutions in complete culture medium plus 4% DMSO) using ten 2/5 serial dilutions (concentrations ranging from 10 to 0.003 μg/mL) and triplicate cultures (1% final concentration in DMSO). After 72 hours treatment, the antitumor effect was measured by using the SRB methodology: Briefly, cells were washed twice with PBS, fixed for 15 min in 1% glutaraldehyde solution at room temperature, rinsed twice in PBS, and stained in 0.4% SRB solution for 30 min at room temperature. Cells were then rinsed several times with 1% acetic acid solution and air-dried at room temperature.
(§6) Effects on cell growth and survival were estimated by applying the NCI algorithm (Boyd M R and Paull K D. Drug Dev. Res. 1995, 34, 91-104). The values obtained in triplicate cultures were fitted by nonlinear regression to a four-parameters logistic curve by nonlinear regression analysis.

A549 cells = test system: A549 cells
Text: as §1, §2, §3, §4, §5, §6

HT29 cells = test system: HT29 cells
Text: as §1, §2, §3, §4, §5, §6

MDA-MB-231 cells = test system: MDA-MB-231 cells
Text: as §1, §2, §3, §4, §5, §6

[1] = Homo sapiens, PSN1, 72 h, PSN1, 72 hours treatment, SRB
[2] = MDA-MB-231, 72 hours treatment, SRB

Row | SMILES | GI50 (PSN1 cells; Homo sapiens, PSN1, 72 h) | CC50 (PSN1 cells; Homo sapiens, PSN1, 72 h) | IC (TGI) (PSN1 cells; Homo sapiens, PSN1, 72 h) | GI50 (A549 cells; Homo sapiens, A549, 72 h) | CC50 (A549 cells; Homo sapiens, A549, 72 h) | IC (TGI) (A549 cells; Homo sapiens, A549, 72 h) | GI50 (HT29 cells; Homo sapiens, HT-29, 72 h) | CC50 (HT29 cells; Homo sapiens, HT-29, 72 h) | IC (TGI) (HT29 cells; Homo sapiens, HT-29, 72 h) | GI50 (MDA-MB-231 cells; Homo sapiens, MDA-MB-231, 72 h) | CC50 (MDA-MB-231 cells; Homo sapiens, MDA-MB-231, 72 h) | IC (TGI) (MDA-MB-231 cells; Homo sapiens, MDA-MB-231, 72 h) | GI50 (PSN1 cells; [1]) | also measured
1 | COc1c(C)cc2c(c1O)[C@@H]1[C@@H]3[C@@H]4SC[C@]5(N[C@H](C(=O)O)Cc6c5[nH]c5ccccc65)C(=O)OC[C@@H](c5c6c(c(C)c(OC(C)=O)c54)OCO6)N3[C@@H](C#N)[C@H](C2)N1C [Compound 14-S] | > 124 nM | > 124 nM | > 124 nM | > 124 nM | > 124 nM | > 124 nM | 121 nM | > 124 nM | > 124 nM | 54.5 nM | > 124 nM | 113 nM |  | 
2 | COc1c(C)cc2c(c1O)[C@@H]1[C@@H]3[C@@H]4SC[C@]5(N[C@@H](CO)Cc6c5oc5ccccc65)C(=O)OC[C@@H](c5c6c(c(C)c(OC(C)=O)c54)OCO6)N3[C@@H](C#N)[C@H](C2)N1C [Compound 38-R] |  | 1.76 nM | 0.994 nM | 0.654 nM | > 126 nM | 1.04 nM | 0.541 nM | > 126 nM | 0.591 nM | 0.453 nM | 2.01 nM | 0.843 nM | 0.654 nM | 
3 | COc1c(C)cc2c(c1O)[C@@H]1[C@@H]3[C@@H]4SC[C@]5(N[C@H](CO)Cc6c5oc5ccccc65)C(=O)OC[C@@H](c5c6c(c(C)c(OC(C)=O)c54)OCO6)N3[C@@H](C#N)[C@H](C2)N1C [Compound 38-S] |  | 15.1 nM | 8.18 nM | 8.05 nM | 9.44 nM | 8.55 nM | 4.53 nM | > 126 nM | 7.05 nM | 2.52 nM | 7.8 nM | 4.28 nM | 5.03 nM | 
4 | COc1c(C)cc2c(c1O)[C@@H]1[C@@H]3[C@@H]4SC[C@]5(N[C@H](COC(C)=O)Cc6c5[nH]c5ccccc65)C(=O)OC[C@@H](c5c6c(c(C)c(OC(C)=O)c54)OCO6)N3[C@@H](C#N)[C@H](C2)N1C [Compound 3a-S] |  | 12 nM | 3.59 nM | 3.11 nM | > 120 nM | 3.23 nM | 2.99 nM | > 120 nM | 3.23 nM | 2.87 nM | 4.9 nM | 3.59 nM | 2.15 nM | 
5 | COc1ccc2[nH]c3c(c2c1)C[C@@H](CN)N[C@]31CS[C@@H]2c3c(OC(C)=O)c(C)c4c(c3[C@H](COC1=O)N1[C@@H]2[C@H]2c3c(cc(C)c(OC)c3O)C[C@@H]([C@@H]1C#N)N2C)OCO4 [Compound 26-S] |  | 3.52 nM | 3.28 nM | 11.2 nM | > 122 nM | 21.9 nM | 2.79 nM | > 122 nM | 3.16 nM | 1.34 nM | 3.89 nM | 1.94 nM | 3.04 nM | 
6 | COc1c(C)cc2c(c1O)[C@@H]1[C@@H]3[C@@H]4SC[C@]5(N[C@H](C(=O)O)Cc6c5[nH]c5ccccc65)C(=O)OC[C@@H](c5c6c(c(C)c(OC(C)=O)c54)OCO6)N3[C@@H](O)[C@H](C2)N1C [Compound 15-S] | 238 nM | 839 nM | 463 nM | > 1250 nM | > 1250 nM | > 1250 nM | 300 nM | 914 nM | 513 nM | 163 nM | 275 nM | 213 nM |  | 
7 | COc1ccc2[nH]c3c(c2c1)C[C@H](C(=O)O)N[C@]31CS[C@@H]2c3c(OC(C)=O)c(C)c4c(c3[C@H](COC1=O)N1[C@@H]2[C@H]2c3c(cc(C)c(OC)c3O)C[C@@H]([C@@H]1O)N2C)OCO4 [Compound 29-R] | 30.2 nM | 35 nM | 31.4 nM | 90.5 nM | > 1210 nM | 193 nM | 30.2 nM | > 1210 nM | 32.6 nM | 16.9 nM | 157 nM | 27.7 nM |  | 
8 | COc1ccc2[nH]c3c(c2c1)CCNC31CSC2c3c(OC(C)=O)c(C)c4c(c3C(COC1=O)N1C(C#N)C3Cc5cc(C)c(OC)c(O)c5C(C21)N3C)OCO4 (stereo not drawn) [E] |  |  |  |  |  |  |  |  |  |  |  |  |  | GI50 (PSN1 cells; PSN1, 72 hours treatment, SRB): 2.77 nM; TGI (PSN1 cells; PSN1, 72 hours treatment, SRB): 4.53E−09 Molar; CC50 (PSN1 cells; PSN1, 72 hours treatment, SRB): 8.94 nM; GI50 (A549 cells; A549, 72 hours treatment, SRB): 3.28 nM; TGI (A549 cells; A549, 72 hours treatment, SRB): 3.40E−09 Molar; CC50 (A549 cells; A549, 72 hours treatment, SRB): 4.41 nM; GI50 (HT29 cells; HT29, 72 hours treatment, SRB): 3.15 nM; TGI (HT29 cells; HT29, 72 hours treatment, SRB): 3.40E−09 Molar; CC50 (HT29 cells; HT29, 72 hours treatment, SRB): > 126 nM; GI50 (MDA-MB-231 cells; [2]): 2.27 nM; TGI (MDA-MB-231 cells; [2]): 3.78E−09 Molar; CC50 (MDA-MB-231 cells; [2]): 7.43 nM
9 | COc1ccc2oc3c(c2c1)CCN[C@]31CS[C@@H]2c3c(OC(C)=O)c(C)c4c(c3[C@H](COC1=O)N1[C@@H]2[C@H]2c3c(cc(C)c(OC)c3O)C[C@@H]([C@@H]1C#N)N2C)OCO4 [Compound 34] | 54.1 nM | > 126 nM | 59.1 nM | 59.1 nM | > 126 nM | 80.5 nM | 54.1 nM | 125 nM | 85.5 nM | 45.3 nM | 112 nM | 76.7 nM |  | 
10 | COc1c(C)cc2c(c1O)[C@@H]1[C@@H]3[C@@H]4SC[C@]5(N[C@@H](CO)Cc6c5[nH]c5ccccc65)C(=O)OC[C@@H](c5c6c(c(C)c(OC(C)=O)c54)OCO6)N3[C@@H](C#N)[C@H](C2)N1C [Compound 3-R] |  | > 126 nM | 0.605 nM |  | > 126 nM | 0.579 nM |  | > 126 nM | > 126 nM |  | 1.25 nM | 0.504 nM | 0.39 nM | 
11 | COc1ccc2[nH]c3c(c2c1)C[C@H](CO)N[C@]31CS[C@@H]2c3c(OC(C)=O)c(C)c4c(c3[C@H](COC1=O)N1[C@@H]2[C@H]2c3c(cc(C)c(OC)c3O)C[C@@H]([C@@H]1C#N)N2C)OCO4 [Compound 18-R] |  |  | 1.06 nM |  |  | 1.34 nM |  |  | 1.34 nM |  | 1.46 nM | 1.34 nM | 0.57 nM | GI50 (PSN1 cells; PSN1, 72 hours treatment, SRB): 0.571 nM
12 | COc1c(C)cc2c(c1O)[C@@H]1[C@@H]3[C@@H]4SC[C@]5(N[C@@H](C)Cc6c5[nH]c5ccccc65)C(=O)OC[C@@H](c5c6c(c(C)c(OC(C)=O)c54)OCO6)N3[C@@H](C#N)[C@H](C2)N1C [B] | 19.3 nM | 23.1 nM | 20.6 nM | 20.6 nM | > 129 nM | 21.9 nM | 8.48 nM | > 129 nM | 9.13 nM | 9 nM | 34.7 nM | 16.7 nM |  | 
13 | C=CCOC(=O)NC[C@H]1Cc2c([nH]c3ccc(OC)cc23)[C@@]2(CS[C@@H]3c4c(OC(C)=O)c(C)c5c(c4[C@H](COC2=O)N2[C@@H]3[C@H]3c4c(cc(C)c(OC)c4O)C[C@@H]([C@@H]2C#N)N3C)OCO5)N1 [Compound 25-R] |  | 6.73 nM | 2.32 nM | 1.32 nM | 9.92 nM | 2.43 nM | 1.54 nM | > 110 nM | 2.76 nM |  | 8.38 nM | 2.54 nM |  | 
14 | COc1ccc2[nH]c3c(c2c1)C[C@@H](CO)N[C@]31CS[C@@H]2c3c(OC(C)=O)c(C)c4c(c3[C@H](COC1=O)N1[C@@H]2[C@H]2c3c(cc(C)c(OC)c3O)C[C@@H]([C@@H]1C#N)N2C)OCO4 [Compound 18-S] |  |  | 1.34 nM | 1.7 nM |  | 3.03 nM |  |  | 1.34 nM |  | 1.58 nM | 1.34 nM | 0.959 nM | 
